Assay [1] deals with Miapaca-2 KRAS G12C + A59T. The experiment in a line: Stable KRAS mutant cell line viability assay (CellTiter-Glo). The following applies: Miapaca-2 mutant cells, 3 d. The format is cell-based. The source says: (§1) The aim of the study was to determine the potency and efficacy of compounds for cell proliferation using CellTiter-Glo® (CTG) Luminescent Cell Viability Assay (Promega Corp., Madison, WI). We cloned 14 KRAS^G12C variant sequences with secondary mutations (V8A, V9Y, S17E, T58I, A59T, S65W, R68S, D69P, M72I, D92R, H95N, Y96D, Q99W and F156L) into the Miapaca-2. Totally 14 stable Miapaca-2 mutant cell lines were established through lentivirus infection. For the cell viability assay, cells were dosed with compounds in a 9-point dose-response using a 4 fold dilution series at a top dose of 10 μM. KRAS mutant cells were maintained in DMEM+10% FBS+2.5% HI Horse serum+1% PS+1 μg/mL Puromycin and seeded into 96-well plates at 800-1,500 cells per well 24 h before compound addition and then incubated with compound for 3 d before assaying viability (CellTiter-Glo, Promega). Assays were performed in biological duplicates. Nonlinear regression curves were fitted using Xfit. IC50 (absolute IC50) is the dose at which the estimated viability is 50% relative to untreated wells.

For assay [2], the system named is Miapaca-2 KRAS G12C + D92R. The description is as above. In kind it is cell-based. The following applies: Miapaca-2 mutant cells, 3 d.
Description: as §1

The test system of assay [3] is Miapaca-2 KRAS G12C + F156L. Described as above. In kind it is cell-based. The settings on record: Miapaca-2 mutant cells, 3 d.
Description: as §1

The subject of assay [4] is Miapaca-2 KRAS G12C + H95N. Described as above. In kind it is cell-based. The following applies: Miapaca-2 mutant cells, 3 d.
Description: as §1

Assay [5] relates to Miapaca-2 KRAS G12C + M72I. The description is as above. In kind it is cell-based. The following applies: Homo sapiens, MIA PaCa-2, 72 h; Miapaca-2 mutant cells, 3 d.
Description: as §1

Assay [6] relates to Miapaca-2 KRAS G12C + Q99W. The assay is described as above. The settings on record: Miapaca-2 mutant cells, 3 d. The format is cell-based.
Description: as §1

Assay [7] relates to Miapaca-2 KRAS G12C + R68S. Described as above. In kind it is cell-based. The settings on record: Miapaca-2 mutant cells, 3 d.
Description: as §1

Assay [8] relates to Miapaca-2 KRAS G12C + S17E. The description is as above. The format is cell-based. The following applies: Miapaca-2 mutant cells, 3 d.
Description: as §1

Assay [9] deals with Miapaca-2 KRAS G12C + S65W. The assay is described as above. In kind it is cell-based. The settings on record: Miapaca-2 mutant cells, 3 d.
Description: as §1

Assay [10] has as its system Miapaca-2 KRAS G12C + T58I. The assay is described as above. The format is cell-based. The settings on record: Miapaca-2 mutant cells, 3 d.
Description: as §1

The test system of assay [11] is Miapaca-2 KRAS G12C + V8A. The description is as above. In kind it is cell-based. The following applies: Miapaca-2 mutant cells, 3 d.
Description: as §1

The test system of assay [12] is Miapaca-2 KRAS G12C + V9Y. The assay is described as above. In kind it is cell-based. The settings on record: Miapaca-2 mutant cells, 3 d.
Description: as §1

Assay [13] concerns Miapaca-2 KRAS G12C + Y96D. The description is as above. In kind it is cell-based. The settings on record: Miapaca-2 mutant cells, 3 d.
Description: as §1

For a further assay, the system named is DUSP6. Description: Brain metastasis intracranial model, PD (DUSP6 in brain, qPCR). In kind it is in vivo, mouse. The following applies: 30 mg/kg once daily for 14 days, 6 hours post last dose, NCI-H1373-Luc model. On the procedure: Example 24, formulated in 10% DMSO, 10% Solutol HS15, 80% water, was dosed orally to 7-9 weeks female BALB/c nude mice (Vital River Co., LTD.) in […] at 30 mg/kg (dosing volume of 10 ml/kg) once daily for 14 days. Terminal tissue and blood harvest was performed at 6 hours after post last dose of test articles, using 4 mice per group. In brief, whole blood was collected into K2-EDTA tubes and subjected to centrifugation to separate plasma. Brains were collected, rinsed, and homogenized. Mice Brain were analyzed using qPCR using DUSP6 and ACTB TaqMan probes (ABI-4369016, ABI-4351370). All the targets mRNA expression levels were normalized to the housekeeping gene, and the data were represented as fold-changes according to the 2-ΔΔCt method, where […] and ΔΔCt=ΔCt treatment-ΔCt reference, ΔCt reference was chosen as the vehicle group. The data were interpreted by GraphPad Prism, and statistical analysis of difference in the each targets mRNA expression among the groups were conducted. For comparison between two groups, an independent sample t-test will be used. For comparison among three or more groups, a one-way ANOVA (Dunnett's multiple comparisons test) will be performed, p<0.05 was considered to be statistically significant.
On the technique in general: Real-time PCR tracks product formation cycle by cycle.

For a further assay, the system named is AGS cells (KRAS G12D). Description: Cell viability assay (Cell Counting Kit-8, 3-day). In kind it is cell-based, human. The following applies: Homo sapiens, 72 h, 72 hrs incubation. The method, boiled down:
(§2)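 Cells seeded at 5,000/well (NCI-H358) or 2,000/well (AGS, SW620), treated next day at 0.5% final DMSO for 72 h. Viability read by CCK-8 (OD450 minus OD650) after 2 h; IC50 from 4-parameter sigmoidal fit.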
A general note: Tetrazolium assays rely on reduction of a dye to a coloured formazan, in cell work by metabolically active cells.

Assay [14] relates to NCI-H358 cells (KRAS G12C). Description: Cell viability assay (Cell Counting Kit-8, 3-day). The format is cell-based, human. The following applies: Homo sapiens, NCI-H358, 72 h, NCI-H358, 72 hrs incubation. The method, boiled down: as §2
Another assay deals with SW620 cells (KRAS G12V). Description: Cell viability assay (Cell Counting Kit-8, 3-day). The format is cell-based, human. The settings on record: Homo sapiens, SW-620; SW620, 72 hrs incubation. The method, boiled down: as §2

A word on the IC50: it is the concentration that gives 50% inhibition.

Turning to `CO[C@@H](C)c1ncc(N2CCN(C)CC2)cc1-c1c2c3cc(cc4c3n1CCC4)-c1csc(n1)C[C@H](NC(=O)[C@H]1[C@H](C)[C@@H]1C)C(=O)N1CCC[C@H](N1)C(=O)OCC(C)(C)C2` (atropisomer, axis not shown; (M)) [Example 24, (1r,2R,3S)-N-[(7S,13S)-(20M)-20-[2-[(1S)-1-methoxyethyl]-5-(4-methylpiperazin-1-yl)-3-pyridyl]-17,17-dimethyl-8,14-dioxo-15-oxa-4-thia-9,21,30,31-tetrazahexacyclo[23.3.1.1^2,5.1^9,13.0^19,27.0^21,26]hentriaconta-1 (28),2,5 (31), 19,25 (29),26-hexaen-7-yl]-2,3-dimethyl-cyclopropanecarboxamide], the IC50 amounted to 6 nM in assay [1]; 2 nM in assay [2]; 1 nM in assay [3]; 1 nM in assay [4]; 1 nM in assay [5]; 5 nM in assay [6]. The IC50 in assay [7] is 2 nM; in assay [8], 3 nM; in [9] it was 1 nM; in [10], 2 nM; in assay [11], 1 nM; in assay [12], 1 nM. For the same molecule, the IC50 is 2 nM in [13], 4.7 nM in the assay with AGS cells (KRAS G12D), 1.3 nM in assay [14] and 0.3 nM in the assay on SW620 cells (KRAS G12V). Also, the “MAPK activation (DUSP6) in the brain” value with DUSP6 is “significantly decreased”.

For the origin of these results see patent US20240417410A1, “TRICYCLIC COMPOUNDS FOR THE TREATMENT OF CANCER” (Hoffmann-La Roche Inc., priority 2023, published 2024).
